Patent publication US20260306644A1, “ANTIBODY RECRUITING MOLECULES FOR THE TREATMENT OF CORONAVIRUS DISEASE-19” (priority 2023, published 2026)
Several values for one entry are separate records, joined by “and”; a condition that tells them apart may be missing. Equal values may be shown once.

target: SARS-CoV-2 Spike protein (Severe acute respiratory syndrome coronavirus 2, UniProt P0DTC2); test: Ternary binding of SARS-CoV-2 Spike protein (293T cells expressing Spike-GFP, IgG-AF647, flow cytometry); assay type: cell-based; details: 293T cells expressing Spike-GFP; IgG-AF647 10 μg/ml; repeat values/batches listed separately; read-out: SARS-CoV-2 Ternary binding EC50
Protocol: 293T cells stably expressing SARS-CoV-2 Spike-GFP protein on their surface were incubated with a concentration range of compound for 30 minutes at 37° C.-5% CO2 in Roswell Park Memorial Institute Medium (RPMI)-5% low IgG serum with 10 μg/ml IgG-Alexa Fluor® 647 (AF647). The cells were washed twice using the same medium, resuspended in phosphate-buffered saline (PBS)-1% bovine serum albumin (BSA), and acquired on Attune™ NxT Flow Cytometer. In some embodiments, mean fluorescence intensity of AF647 as well as […] AF647 positive in GFP positive gate are reported as readouts in this assay.

Q: How did the EC50 turn out when `CC[C@H](C)[C@H](NC(=O)[C@H](Cc1c[nH]c2ccccc12)NC(=O)[C@H](CCC(=O)O)NC(=O)[C@H](CCCCN)NC(=O)[C@H](CC(=O)O)NC(C)=O)C(=O)N[C@@H](CC(C)C)C(=O)N[C@@H](CCC(N)=O)C(=O)N[C@@H](CCCCN)C(=O)N[C@H](C(=O)N[C@@H](Cc1ccc(O)cc1)C(=O)N[C@@H](CCC(=O)O)C(=O)N[C@H](C(=O)N[C@@H](CCSC)C(=O)N[C@@H](CCCNC(=N)N)C(=O)N[C@@H](CC(C)C)C(=O)N[C@@H](CC(C)C)C(=O)N[C@@H](CC(=O)O)C(=O)N[C@@H](CCC(=O)O)C(=O)N[C@@H](CC(C)C)C(=O)NCC(=O)N[C@@H](Cc1c[nH]cn1)C(=O)N[C@@H](C)C(=O)N[C@@H](CCC(=O)O)C(=O)N[C@@H](C)C(=O)N[C@@H](CO)C(=O)N[C@@H](CCSC)C(=O)N[C@@H](CCCNC(=N)N)C(=O)N[C@H](C(=O)N[C@@H](CO)C(=O)NCCOCCOCCOCCOCCOCCOCCOCCOCCC(=O)NCCOCCOCCOCCOCCOCCOCCOCCOCCC(=O)N[C@@H](CC(=O)O)C(=O)N[C@H]1CSSC[C@@H](C(=O)N[C@H](C(N)=O)[C@@H](C)O)NC(=O)[C@H](Cc2c[nH]c3ccccc23)NC(=O)[C@H](C(C)C)NC(=O)[C@H](CC(C)C)NC(=O)[C@H](CCC(=O)O)NC(=O)CNC(=O)[C@H](CC(C)C)NC(=O)[C@H](Cc2c[nH]cn2)NC(=O)[C@H](Cc2c[nH]c3ccccc23)NC(=O)[C@H](C)NC1=O)C(C)C)[C@@H](C)CC)[C@@H](C)CC` [Compound 153] was run?
A: Its EC50 is greater than 10 nM.

Q: With `CC[C@H](C)[C@H](NC(=O)[C@H](CC(C)C)NC(=O)[C@H](CC(=O)O)NC(=O)[C@H](CO)NC(=O)[C@@H](NC(=O)[C@H](CCCNC(=N)N)NC(=O)[C@H](CCSC)NC(=O)[C@H](CO)NC(=O)[C@H](C)NC(=O)[C@H](CCC(=O)O)NC(=O)[C@H](C)NC(=O)[C@H](Cc1c[nH]cn1)NC(=O)CNC(=O)[C@H](CC(C)C)NC(=O)[C@H](CCC(=O)O)NC(=O)[C@H](CC(=O)O)NC(=O)[C@H](CC(C)C)NC(=O)[C@H](CC(C)C)NC(=O)[C@H](CCCNC(=N)N)NC(=O)[C@H](CCSC)NC(=O)[C@@H](NC(=O)[C@H](CCC(=O)O)NC(=O)[C@H](Cc1ccc(O)cc1)NC(=O)[C@@H](NC(=O)[C@H](CCCCN)NC(=O)[C@H](CCC(N)=O)NC(=O)[C@H](CC(C)C)NC(=O)[C@@H](NC(=O)[C@H](Cc1c[nH]c2ccccc12)NC(=O)[C@H](CCC(=O)O)NC(=O)[C@H](CCCCN)NC(=O)[C@H](CC(=O)O)NC(C)=O)[C@@H](C)CC)[C@@H](C)CC)[C@@H](C)CC)C(C)C)C(=O)N[C@@H](Cc1ccc(O)cc1)C(=O)N[C@@H](CCC(=O)O)C(=O)NCCOCCOCCOCCOCCOCCOCCOCCOCCC(=O)NCCOCCOCCOCCOCCOCCOCCOCCOCCC(=O)N[C@@H](CC(=O)O)C(=O)N[C@H]1CSSC[C@@H](C(=O)N[C@H](C(N)=O)[C@@H](C)O)NC(=O)[C@H](Cc2c[nH]c3ccccc23)NC(=O)[C@H](C(C)C)NC(=O)[C@H](CC(C)C)NC(=O)[C@H](CCC(=O)O)NC(=O)CNC(=O)[C@H](CC(C)C)NC(=O)[C@H](Cc2c[nH]cn2)NC(=O)[C@H](Cc2c[nH]c3ccccc23)NC(=O)[C@H](C)NC1=O` [Compound 154] as the compound, how does the EC50 read?
A: The EC50 was greater than 100 nM.

Q: With `CC[C@H](C)[C@H](NC(C)=O)C(=O)N[C@@H](Cc1ccc(O)cc1)C(=O)N[C@@H](CCC(=O)O)C(=O)N[C@H](C(=O)N[C@@H](CCSC)C(=O)N[C@@H](CCCNC(=N)N)C(=O)N[C@@H](CC(C)C)C(=O)N[C@@H](CC(C)C)C(=O)N[C@@H](CC(=O)O)C(=O)N[C@@H](CCC(=O)O)C(=O)N[C@@H](CC(C)C)C(=O)NCC(=O)N[C@@H](Cc1c[nH]cn1)C(=O)N[C@@H](C)C(=O)N[C@@H](CCC(=O)O)C(=O)N[C@@H](C)C(=O)N[C@@H](CO)C(=O)N[C@@H](CCSC)C(=O)N[C@@H](CCCNC(=N)N)C(=O)N[C@H](C(=O)N[C@@H](CO)C(=O)N[C@@H](CC(=O)O)C(=O)N[C@@H](CC(C)C)C(=O)N[C@H](C(=O)N[C@@H](Cc1ccc(O)cc1)C(=O)N[C@@H](CCC(=O)O)C(=O)N[C@@H](Cc1ccccc1)C(=O)N[C@@H](CCSC)C(=O)N[C@@H](CCCCN)C(=O)N[C@@H](CCCCN)C(=O)NCC(=O)NCCOCCOCCOCCOCCOCCOCCOCCOCCC(=O)NCCOCCOCCOCCOCCOCCOCCOCCOCCC(=O)N[C@@H](CC(=O)O)C(=O)N[C@H]1CSSC[C@@H](C(=O)N[C@H](C(N)=O)[C@@H](C)O)NC(=O)[C@H](Cc2c[nH]c3ccccc23)NC(=O)[C@H](C(C)C)NC(=O)[C@H](CC(C)C)NC(=O)[C@H](CCC(=O)O)NC(=O)CNC(=O)[C@H](CC(C)C)NC(=O)[C@H](Cc2c[nH]cn2)NC(=O)[C@H](Cc2c[nH]c3ccccc23)NC(=O)[C@H](C)NC1=O)[C@@H](C)CC)C(C)C)[C@@H](C)CC` [Compound 156] as the compound, how does the EC50 read?
A: The EC50 was greater than 100 nM.

Q: For `CC[C@H](C)[C@H](NC(=O)[C@H](CC(C)C)NC(=O)[C@H](CC(=O)O)NC(=O)[C@H](CO)NC(=O)[C@@H](NC(=O)[C@H](CCCNC(=N)N)NC(=O)[C@H](CCSC)NC(=O)[C@H](CO)NC(=O)[C@H](C)NC(=O)[C@H](CCC(=O)O)NC(=O)[C@H](C)NC(=O)[C@H](Cc1c[nH]cn1)NC(=O)CNC(=O)[C@H](CC(C)C)NC(=O)[C@H](CCC(=O)O)NC(=O)[C@H](CC(=O)O)NC(=O)[C@H](CC(C)C)NC(=O)[C@H](CC(C)C)NC(=O)[C@H](CCCNC(=N)N)NC(=O)[C@H](CCSC)NC(=O)[C@@H](NC(=O)[C@H](CCC(=O)O)NC(=O)[C@H](Cc1ccc(O)cc1)NC(=O)[C@@H](NC(=O)[C@H](CCCCN)NC(=O)[C@H](CCC(N)=O)NC(=O)[C@H](CC(C)C)NC(=O)[C@@H](NC(=O)[C@H](Cc1c[nH]c2ccccc12)NC(=O)[C@H](CCC(=O)O)NC(=O)[C@H](CCCCN)NC(=O)[C@H](CC(=O)O)NC(C)=O)[C@@H](C)CC)[C@@H](C)CC)[C@@H](C)CC)C(C)C)C(=O)N[C@@H](Cc1ccc(O)cc1)C(=O)N[C@@H](CCC(=O)O)C(=O)N[C@@H](Cc1ccccc1)C(=O)N[C@@H](CCSC)C(=O)N[C@@H](CCCCN)C(=O)N[C@@H](CCCCN)C(=O)NCC(=O)NCCOCCNC(=O)[C@@H]1CSCC(=O)N[C@@H](C)C(=O)N[C@@H](CO)C(=O)N[C@@H](Cc2ccc(O)cc2)C(=O)N[C@@H](Cc2c[nH]cn2)C(=O)N[C@@H](CC(C)C)C(=O)NCC(=O)N[C@@H](CCC(=O)O)C(=O)N[C@@H](CC(C)C)C(=O)N[C@@H](C(C)C)C(=O)N[C@@H](Cc2c[nH]c3ccccc23)C(=O)N2Cc3ccccc3C[C@H]2C(=O)NC(C)(C)C(=O)N1` [Compound 159], which EC50 is on record?
A: The EC50 was 3 nM and 2.8 nM.

Q: How did the EC50 turn out when `CC[C@H](C)[C@H](NC(=O)[C@H](CC(C)C)NC(=O)[C@H](CC(=O)O)NC(=O)[C@H](CO)NC(=O)[C@@H](NC(=O)[C@H](CCCNC(=N)N)NC(=O)[C@H](CCSC)NC(=O)[C@H](CO)NC(=O)[C@H](C)NC(=O)[C@H](CCC(=O)O)NC(=O)[C@H](C)NC(=O)[C@H](Cc1c[nH]cn1)NC(=O)CNC(=O)[C@H](CC(C)C)NC(=O)[C@H](CCC(=O)O)NC(=O)[C@H](CC(=O)O)NC(=O)[C@H](CC(C)C)NC(=O)[C@H](CC(C)C)NC(=O)[C@H](CCCNC(=N)N)NC(=O)[C@H](CCSC)NC(=O)[C@@H](NC(=O)[C@H](CCC(=O)O)NC(=O)[C@H](Cc1ccc(O)cc1)NC(=O)[C@@H](NC(=O)[C@H](CCCCN)NC(=O)[C@H](CCC(N)=O)NC(=O)[C@H](CC(C)C)NC(=O)[C@@H](NC(=O)[C@H](Cc1c[nH]c2ccccc12)NC(=O)[C@H](CCC(=O)O)NC(=O)[C@H](CCCCN)NC(=O)[C@H](CC(=O)O)NC(C)=O)[C@@H](C)CC)[C@@H](C)CC)[C@@H](C)CC)C(C)C)C(=O)N[C@@H](Cc1ccc(O)cc1)C(=O)N[C@@H](CCC(=O)O)C(=O)N[C@@H](Cc1ccccc1)C(=O)N[C@@H](CCSC)C(=O)N[C@@H](CCCCN)C(=O)N[C@@H](CCCCN)C(=O)NCC(=O)NCCOCCOCCOCCOCCOCCOCCOCCOCCC(=O)NCCOCCOCCOCCOCCOCCOCCOCCOCCNC(=O)[C@@H]1CSCC(=O)N[C@@H](C)C(=O)N[C@@H](CO)C(=O)N[C@@H](Cc2ccc(O)cc2)C(=O)N[C@@H](Cc2c[nH]cn2)C(=O)N[C@@H](CC(C)C)C(=O)NCC(=O)N[C@@H](CCC(=O)O)C(=O)N[C@@H](CC(C)C)C(=O)N[C@@H](C(C)C)C(=O)N[C@@H](Cc2c[nH]c3ccccc23)C(=O)N2Cc3ccccc3C[C@H]2C(=O)NC(C)(C)C(=O)N1` [Compound 160] was run?
A: The EC50 was 1.4 nM and 2.2 nM.

Q: How did the EC50 turn out when `CC[C@H](C)[C@H](NC(=O)[C@H](CC(C)C)NC(=O)[C@H](CC(=O)O)NC(=O)[C@H](CO)NC(=O)[C@@H](NC(=O)[C@H](CCCNC(=N)N)NC(=O)[C@H](CCSC)NC(=O)[C@H](CO)NC(=O)[C@H](C)NC(=O)[C@H](CCC(=O)O)NC(=O)[C@H](C)NC(=O)[C@H](Cc1c[nH]cn1)NC(=O)CNC(=O)[C@H](CC(C)C)NC(=O)[C@H](CCC(=O)O)NC(=O)[C@H](CC(=O)O)NC(=O)[C@H](CC(C)C)NC(=O)[C@H](CC(C)C)NC(=O)[C@H](CCCNC(=N)N)NC(=O)[C@H](CCSC)NC(=O)[C@@H](NC(=O)[C@H](CCC(=O)O)NC(=O)[C@H](Cc1ccc(O)cc1)NC(=O)[C@@H](NC(=O)[C@H](CCCCN)NC(=O)[C@H](CCC(N)=O)NC(=O)[C@H](CC(C)C)NC(=O)[C@@H](NC(=O)[C@H](Cc1c[nH]c2ccccc12)NC(=O)[C@H](CCC(=O)O)NC(=O)[C@H](CCCCN)NC(=O)[C@H](CC(=O)O)NC(C)=O)[C@@H](C)CC)[C@@H](C)CC)[C@@H](C)CC)C(C)C)C(=O)N[C@@H](Cc1ccc(O)cc1)C(=O)N[C@@H](CCC(=O)O)C(=O)N[C@@H](Cc1ccccc1)C(=O)N[C@@H](CCSC)C(=O)N[C@@H](CCCCN)C(=O)N[C@@H](CCCCN)C(=O)NCC(=O)NCCOCCOCCOCCOCCOCCOCCOCCOCCNC(=O)[C@@H]1CSCC(=O)N[C@@H](C)C(=O)N[C@@H](CO)C(=O)N[C@@H](Cc2ccc(O)cc2)C(=O)N[C@@H](Cc2c[nH]cn2)C(=O)N[C@@H](CC(C)C)C(=O)NCC(=O)N[C@@H](CCC(=O)O)C(=O)N[C@@H](CC(C)C)C(=O)N[C@@H](C(C)C)C(=O)N[C@@H](Cc2c[nH]c3ccccc23)C(=O)N2Cc3ccccc3C[C@H]2C(=O)NC(C)(C)C(=O)N1` [Compound 161] was run?
A: The EC50 was 2.2 nM.
